{"source": "PubChem BioAssay AID190", "about": "(DTP/NCI, 2004)", "system": "AKR/Lw mice, AKR lymphoma ip, median survival T/C", "test": "NCI In Vivo Anticancer Drug Screen. Data for tumor model Lymphoma AKR (Transplanted) (intraperitoneal) in AKR/Lw mice", "details": "endpoint: median survival time, higher = longer survival", "experimental": "The antitumor activity of compounds was measured in mice bearing transplantable tumors. Survival or tumor size were measured and the results are expressed as the measurement made in the treated group (T) divided by the measurement made in the vehicle treated control group (C). The tumor model used in this assay is Lymphoma AKR (Transplanted) (intraperitoneal) in AKR/Lw mice", "note": "Several values for one entry are separate records, joined by “and”; a condition that tells them apart may be missing. Identical values can stand only once. Toxic doses and inconclusive results are not listed."}
{"smiles": "O=[N+]([O-])O.[Ga]", "values": [{"measurement": "T/C", "setting": "dose: 1.25 mg/kg/injection, schedule: Q01DX001 (ip), vehicle: saline", "value": "102 % of control"}, {"measurement": "T/C", "setting": "dose: 2.5 mg/kg/injection, schedule: Q01DX001 (ip), vehicle: saline", "value": "102 % of control"}, {"measurement": "T/C", "setting": "dose: 2.5 mg/kg/injection, schedule: Q01DX009 (ip), vehicle: saline", "value": "114 % of control"}, {"measurement": "T/C", "setting": "dose: 2.5 mg/kg/injection, schedule: Q04DX003 (ip), vehicle: saline", "value": "87 % of control"}, {"measurement": "T/C", "setting": "dose: 3.1 mg/kg/injection, schedule: Q01DX001 (ip), vehicle: saline", "value": "105 % of control"}, {"measurement": "T/C", "setting": "dose: 5.0 mg/kg/injection, schedule: Q01DX001 (ip), vehicle: saline", "value": "102 % of control"}, {"measurement": "T/C", "setting": "dose: 5.0 mg/kg/injection, schedule: Q01DX009 (ip), vehicle: saline", "value": "91 % of control and 100 % of control"}, {"measurement": "T/C", "setting": "dose: 5.0 mg/kg/injection, schedule: Q04DX003 (ip), vehicle: saline", "value": "93 % of control and 108 % of control"}, {"measurement": "T/C", "setting": "dose: 6.2 mg/kg/injection, schedule: Q01DX001 (ip), vehicle: saline", "value": "94 % of control"}, {"measurement": "T/C", "setting": "dose: 6.2 mg/kg/injection, schedule: Q04DX003 (ip), vehicle: saline", "value": "102 % of control"}, {"measurement": "T/C", "setting": "dose: 7.5 mg/kg/injection, schedule: Q01DX009 (ip), vehicle: saline", "value": "86 % of control"}, {"measurement": "T/C", "setting": "dose: 8.0 mg/kg/injection, schedule: Q01DX009 (ip), vehicle: saline", "value": "100 % of control"}, {"measurement": "T/C", "setting": "dose: 10.0 mg/kg/injection, schedule: Q01DX001 (ip), vehicle: saline", "value": "92 % of control and 105 % of control"}, {"measurement": "T/C", "setting": "dose: 10.0 mg/kg/injection, schedule: Q01DX009 (ip), vehicle: saline", "value": "97 % of control and 111 % of control"}, {"measurement": "T/C", "setting": "dose: 10.0 mg/kg/injection, schedule: Q04DX003 (ip), vehicle: saline", "value": "87 % of control and 108 % of control"}, {"measurement": "T/C", "setting": "dose: 12.5 mg/kg/injection, schedule: Q01DX009 (ip), vehicle: saline", "value": "105 % of control"}, {"measurement": "T/C", "setting": "dose: 12.5 mg/kg/injection, schedule: Q04DX003 (ip), vehicle: saline", "value": "102 % of control"}, {"measurement": "T/C", "setting": "dose: 20.0 mg/kg/injection, schedule: Q01DX001 (ip), vehicle: saline", "value": "105 % of control"}, {"measurement": "T/C", "setting": "dose: 20.0 mg/kg/injection, schedule: Q01DX009 (ip), vehicle: saline", "value": "94 % of control and 102 % of control"}, {"measurement": "T/C", "setting": "dose: 20.0 mg/kg/injection, schedule: Q04DX003 (ip), vehicle: saline", "value": "93 % of control and 106 % of control"}, {"measurement": "T/C", "setting": "dose: 25.0 mg/kg/injection, schedule: Q01DX009 (ip), vehicle: saline", "value": "88 % of control and 105 % of control"}, {"measurement": "T/C", "setting": "dose: 25.0 mg/kg/injection, schedule: Q04DX003 (ip), vehicle: saline", "value": "94 % of control"}, {"measurement": "T/C", "setting": "dose: 40.0 mg/kg/injection, schedule: Q01DX001 (ip), vehicle: saline", "value": "105 % of control"}, {"measurement": "T/C", "setting": "dose: 50.0 mg/kg/injection, schedule: Q01DX009 (ip), vehicle: saline", "value": "105 % of control and 110 % of control and 113 % of control"}, {"measurement": "T/C", "setting": "dose: 64.0 mg/kg/injection, schedule: Q04DX003 (ip), vehicle: water", "value": "116 % of control"}, {"measurement": "T/C", "setting": "dose: 500.0 mg/kg/injection, schedule: Q01DX001 (ip), vehicle: saline", "value": "88 % of control and 95 % of control"}]}
{"smiles": "CCCCCCCCCCCCCCCC(=O)OCC1OC(n2ccc(N)nc2=O)C(O)C1O", "note": "(stereo not drawn)", "values": [{"measurement": "T/C", "setting": "dose: 0.07 mg/kg/injection, schedule: Q01DX015 (ip), vehicle: saline with Tween-80", "value": "150 % of control"}, {"measurement": "T/C", "setting": "dose: 0.15 mg/kg/injection, schedule: Q01DX015 (ip), vehicle: saline with Tween-80", "value": "115 % of control"}, {"measurement": "T/C", "setting": "dose: 0.31 mg/kg/injection, schedule: Q01DX010 (ip), vehicle: saline with Tween-80", "value": "110 % of control"}, {"measurement": "T/C", "setting": "dose: 0.62 mg/kg/injection, schedule: Q01DX010 (ip), vehicle: saline with Tween-80", "value": "110 % of control"}, {"measurement": "T/C", "setting": "dose: 0.62 mg/kg/injection, schedule: Q01DX015 (ip), vehicle: saline with Tween-80", "value": "375 % of control"}, {"measurement": "T/C", "setting": "dose: 1.25 mg/kg/injection, schedule: Q01DX015 (ip), vehicle: saline with Tween-80", "value": "165 % of control"}, {"measurement": "T/C", "setting": "dose: 2.5 mg/kg/injection, schedule: Q01DX015 (ip), vehicle: saline with Tween-80", "value": "225 % of control"}, {"measurement": "T/C", "setting": "dose: 3.12 mg/kg/injection, schedule: Q01DX001 (ip), vehicle: saline with Tween-80", "value": "111 % of control"}, {"measurement": "T/C", "setting": "dose: 3.75 mg/kg/injection, schedule: Q01DX005 (ip), vehicle: saline with Tween-80", "value": "100 % of control and 116 % of control"}, {"measurement": "T/C", "setting": "dose: 3.75 mg/kg/injection, schedule: Q01DX015 (ip), vehicle: saline with Tween-80", "value": "153 % of control"}, {"measurement": "T/C", "setting": "dose: 5.0 mg/kg/injection, schedule: Q01DX010 (ip), vehicle: saline with Tween-80", "value": "166 % of control and 218 % of control"}, {"measurement": "T/C", "setting": "dose: 5.0 mg/kg/injection, schedule: Q01DX015 (ip), vehicle: saline with Tween-80", "value": "212 % of control"}, {"measurement": "T/C", "setting": "dose: 6.25 mg/kg/injection, schedule: Q01DX001 (ip), vehicle: saline with Tween-80", "value": "102 % of control"}, {"measurement": "T/C", "setting": "dose: 6.25 mg/kg/injection, schedule: Q14DX003 (ip), vehicle: saline with Tween-80", "value": "112 % of control"}, {"measurement": "T/C", "setting": "dose: 7.5 mg/kg/injection, schedule: Q01DX015 (ip), vehicle: saline with Tween-80", "value": "200 % of control"}, {"measurement": "T/C", "setting": "dose: 10.0 mg/kg/injection, schedule: Q01DX010 (ip), vehicle: saline with Tween-80", "value": "180 % of control and 261 % of control"}, {"measurement": "T/C", "setting": "dose: 10.0 mg/kg/injection, schedule: Q01DX015 (ip), vehicle: saline with Tween-80", "value": "375 % of control"}, {"measurement": "T/C", "setting": "dose: 12.5 mg/kg/injection, schedule: Q01DX001 (ip), vehicle: saline with Tween-80", "value": "108 % of control"}, {"measurement": "T/C", "setting": "dose: 12.5 mg/kg/injection, schedule: Q09DX002 (ip), vehicle: saline with Tween-80", "value": "113 % of control"}, {"measurement": "T/C", "setting": "dose: 12.5 mg/kg/injection, schedule: Q14DX003 (ip), vehicle: saline with Tween-80", "value": "155 % of control"}, {"measurement": "T/C", "setting": "dose: 12.5 mg/kg/injection, schedule: Q14DX004 (ip), vehicle: saline with Tween-80", "value": "122 % of control"}, {"measurement": "T/C", "setting": "dose: 15.0 mg/kg/injection, schedule: Q01DX015 (ip), vehicle: saline with Tween-80", "value": "250 % of control"}, {"measurement": "T/C", "setting": "dose: 18.8 mg/kg/injection, schedule: Q01DX001 (ip), vehicle: saline with Tween-80", "value": "121 % of control"}, {"measurement": "T/C", "setting": "dose: 25.0 mg/kg/injection, schedule: Q09DX002 (ip), vehicle: saline with Tween-80", "value": "121 % of control"}, {"measurement": "T/C", "setting": "dose: 25.0 mg/kg/injection, schedule: Q14DX003 (ip), vehicle: saline with Tween-80", "value": "203 % of control"}, {"measurement": "T/C", "setting": "dose: 30.0 mg/kg/injection, schedule: Q01DX015 (ip), vehicle: saline with Tween-80", "value": "70 % of control"}, {"measurement": "T/C", "setting": "dose: 45.0 mg/kg/injection, schedule: Q01DX005 (ip), vehicle: saline with Tween-80", "value": "61 % of control and 110 % of control"}, {"measurement": "T/C", "setting": "dose: 50.0 mg/kg/injection, schedule: Q09DX002 (ip), vehicle: saline with Tween-80", "value": "172 % of control"}, {"measurement": "T/C", "setting": "dose: 50.0 mg/kg/injection, schedule: Q14DX003 (ip), vehicle: saline with Tween-80", "value": "183 % of control and 343 % of control"}, {"measurement": "T/C", "setting": "dose: 100.0 mg/kg/injection, schedule: Q14DX003 (ip), vehicle: saline with Tween-80", "value": "381 % of control"}, {"measurement": "T/C", "setting": "dose: 100.0 mg/kg/injection, schedule: Q14DX004 (ip), vehicle: saline with Tween-80", "value": "182 % of control"}, {"measurement": "T/C", "setting": "dose: 150.0 mg/kg/injection, schedule: Q14DX003 (ip), vehicle: saline with Tween-80", "value": "375 % of control"}]}
{"smiles": "COc1ccc(CCNC(=S)NCCc2ccc(OC)c(OC)c2)cc1OC", "values": [{"measurement": "T/C", "setting": "dose: 25.0 mg/kg/injection, schedule: Q04DX003 (ip), vehicle: Klucel (hydroxypropylcellulose) (HPC)", "value": "94 % of control"}, {"measurement": "T/C", "setting": "dose: 50.0 mg/kg/injection, schedule: Q04DX003 (ip), vehicle: Klucel (hydroxypropylcellulose) (HPC)", "value": "105 % of control"}, {"measurement": "T/C", "setting": "dose: 100.0 mg/kg/injection, schedule: Q01DX001 (ip), vehicle: Klucel (hydroxypropylcellulose) (HPC)", "value": "88 % of control"}, {"measurement": "T/C", "setting": "dose: 100.0 mg/kg/injection, schedule: Q04DX003 (ip), vehicle: Klucel (hydroxypropylcellulose) (HPC)", "value": "100 % of control"}, {"measurement": "T/C", "setting": "dose: 400.0 mg/kg/injection, schedule: Q01DX001 (ip), vehicle: Klucel (hydroxypropylcellulose) (HPC)", "value": "86 % of control"}]}
